# Experiments:
# [1] = system: patients with advanced cancer diseases; details: SECAR clinical phase I study; intermittent daily infusions (20-40 minutes); Brodin et al. 2014; cited from earlier work
# [2] = Pharmacokinetics: plasma selenium by ICP-MS, one compartment infusion model; assay type: in vivo, human
# Protocol: Blood samples are collected about 5 minutes prior and post infusion at all treatments. The plasma fractions are obtained by centrifugation and stored at -70°C until analyses.
# Pharmacokinetic analyses are performed by using the Win-Nonlin program Standard Edition version 1.5 (Pharsight Corporation, Mountain View, CA, USA).
# The one compartment infusion model was used for the evaluation of the pharmacokinetics. The reciprocal concentrations were used as weights for the iterative procedure. […] AUC values during the entire treatment period (i.e. from day 0 to day 35) were evaluated by applying the trapezoidal rule to estimated time-concentration curves.
# [3] = system: patients with advanced cancer diseases; assay: Phase I dose-escalation trial of intravenously administered sodium selenite: toxicity and MTD; assay type: in vivo, human
# Protocol: In a previous study, the present inventors carried out the first in-human phase-I trial to determine the MTD of intravenously administered sodium selenite in patients with advanced cancer diseases.
# This phase I trial is an open-label dose-escalation study of i.v. administered sodium selenite. Each cohort consists of three patients who are treated with dosages regimens according to a predefined schedule having the two-step dosage regimen.
# Serious toxicity in primarily the brain and the heart has been recorded in patients treated with high doses of selenite.
# With a few exceptions, all patients visited the clinic before and after infusion, at least once a week during the treatment, before each chemotherapy treatment and at the end of treatment. At these occasions, the medical history is recorded, and a physical examination is performed. Patients undergo CT or PET-CT examination one week before the start, three days after the completion of the selenite treatment and after the final chemotherapy treatment. Routine blood parameters are analysed before, during and after the treatment. The ECG is examined before the start and after both the selenite and chemotherapy treatments.
# cancer patients = details: cumulative intravenous administration of 100 mg; reports about a century ago; cited from earlier work
smiles,measurement,setting,value
O=[Se](O)O [sodium selenite],maximum tolerated dose,[1],approximately 10.2 mg/m^2
same,plasma selenite concentration at the end of the treatment,[2]; high doses of repeated selenite administration,returned to the baseline levels
same,plasma selenite concentration with respect to the total dose,[2]; in vivo,linear increase
same,"Toxicity registered from similar dose, during similar time but as intermittent infusion","[3]; 3.0 mg/m^2, cohort 2","3.0 mg/m^2, cohort 2, no certain toxicity,"
same,"Toxicity registered from similar dose, during similar time but as intermittent infusion","[3]; 4.5 mg/m^2, cohort 3",very mild toxicity
same,"Toxicity registered from similar dose, during similar time but as intermittent infusion","[3]; 6.0 mg/m^2, cohort 4","6.0 mg/m^2, cohort 4, mild toxicity"
same,"Toxicity registered from similar dose, during similar time but as intermittent infusion","[3]; 9.0 mg/m2, cohort 5",gr 1 toxicity
same,"Toxicity registered from similar dose, during similar time but as intermittent infusion","[3]; 20.4 mg/m^2, cohort 7",grade 2 toxicity
same,"Toxicity registered from similar dose, during similar time but as intermittent infusion","[3]; 38.4 mg/m^2, cohort 10","38.4 mg/m^2, cohort 10, gr 3 & gr 4 toxicity"
same,duration of dose-limiting toxicity (DLT),"[3]; DLT appeared some hours after selenite infusion, without persisting toxicity or sequelae",6 to 8 h
same,bone marrow toxicity,[3]; at MTD dose (10.2 mg/m^2) and below,no bone marrow toxicity was evident
same,MTD for repeated infusions,"[3]; cohort 8, total dose given as intermittent infusion over similar time",30.6 mg/m2
same,toxicity mainly observed as,[3]; could be dose-limiting in spite of antiemetic treatment,"nausea, vomiting and fatigue"
same,most significant adverse effects,[3]; especially at high dose levels such as beyond MTD,"heart toxicity with signs of ischemia, confusion and unconsciousness"
same,MTD,"[3]; intravenously administered, previous first in-human phase-I trial, well tolerated at doses up to this value",10.2 mg/m^2
same,toxic effects,cancer patients,no incidence of toxic effects

# — patent EP3389676B1, “DOSAGE REGIMEN OF SODIUM SELENITE IN THE TREATMENT OF CANCER” (Pharma Nord ApS, priority 2015, dated 2017)
